According to patent US20240390296A1, “R-KETAMINE AND DERIVATIVE THEREOF AS PROPHYLACTIC OR THERAPEUTIC AGENT FOR NEURODE[…] OR R[…]” (National University Corporation Chiba University, priority 2017, published 2024):

Tests used:
[1] = test system: animal model of Parkinson's disease; conditions: 50 mg/kg (anesthetic dose), cited from earlier work
MPTP-treated mice = assay: MPTP mouse model of Parkinson's disease, DAT immunohistochemistry in the striatum; type: in vivo
From the text: A Parkinson's disease model animal (Jackson-Lewis V. et al. Protocol for the MPTP mouse model of Parkinson's disease. Nat Protoc. 2007; 2 (1): 141-51.), which is a representative Parkinson's disease animal model and has been used by a number of research groups so far, was used to study the therapeutic effect of R-ketamine and S-ketamine on the loss of the dopamine nervous system in the brain of the model animal.
The creation of the Parkinson's disease model animal and the administration of the drug were specifically carried out as described below (FIG. 1). As the mouse, a male C57BL/6N mouse (12 weeks of age, SLC Japan Co., Ltd., Hamamatsu, Japan) was purchased. Mice had free access to water and food. For the experiment, those above 14 weeks of age were used. On the first day of the experiment, physiological saline (5 mL/kg body weight) or MPTP (10 mg/kg body weight) was intraperitoneally administered three times at two hours intervals. Three hours after the final administration, R-ketamine (10 mg/kg body weight) or S-ketamine (10 mg/kg body weight), or a vehicle (physiological saline 0.5 mL/kg) was intranasally administered. Similarly, from the second day to the seventh day of the experiment, R-ketamine (10 mg/kg body weight) or S-ketamine (10 mg/kg body weight), or the vehicle (physiological saline 0.5 mL/kg) was intranasally administered. (A) is a group administered with physiological saline+physiological saline, (B) is a group administered with MPTP+physiological saline, (C) is a group administered with MPTP+R-ketamine, and (D) is a group administered with MPTP+S-ketamine. On the eighth day of the experiment, mice were perfused and fixed, and immunohistochemistry of dopamine transporter (DAT) was carried out. The immunohistochemistry of DAT was photographed with a microscope equipped with a CCD camera (Olympus IX70, Tokyo, Japan), and the shading was analyzed using SCION IMAGE software. Representative immunohistochemical photographs were taken with a Keyence microscope (BZ-9000, Osaka, Japan).
Statistical analysis was carried out by one-way analysis of variance (one-way ANOVA) followed by Tukey's test (Tukey HSD test). Data are expressed as mean±standard error (n=7 to 8 mouse/group). * p<0.05, ** p<0.01, and *** p<0.001 show significant differences compared to the (B) group of mice treated with MPTP+physiological saline.
The test was carried out in the same manner as in the test in FIG. 1 except that R-ketamine (10 mg/kg body weight) or the vehicle (physiological saline 0.5 mL/kg) was intranasally administered once (FIG. 4). There were a group administered with physiological saline+physiological saline, a group administered with MPTP+physiological saline, and a group administered with MPTP+R-ketamine.
The test was carried out in the same manner as in the test in FIG. 1 except that R-norketamine (10 mg/kg body weight) or S-norketamine (10 mg/kg body weight) was administered (FIG. 6). There were a group administered with physiological saline+physiological saline, a group administered with MPTP+physiological saline, a group administered with MPTP+R-norketamine, and a group administered with MPTP+S-norketamine.
The test was carried out in the same manner as in the test in FIG. 1 except that ANA-12 (0.5 mg/kg), an antagonist of the TrkB receptor for brain-derived neurotrophic factor (BDNF: Brain-derived Neurotrophic Factor), was administered before the administration of R-ketamine. (FIG. 8). It should be noted that in FIG. 8, ANA-12 is described as ANA. There was a group administered with physiological saline+physiological saline, a group administered with MPTP+physiological saline, a group administered with MPTP+R-ketamine, a group administered with MPTP+R-ketamine+ANA-12, and a group administered with MPTP+ANA-12.

α-synuclein-treated mice = assay: Lewy body dementia model (intracerebroventricular α-synuclein), novel object recognition test (NORT); type: in vivo, mouse; conditions: 10 mg/kg intraperitoneal once a day, day 2 to day 10; test session day 15; male ICR mice
From the text: The therapeutic effects of R-ketamine and S-ketamine on cognitive dysfunction were studied using animal models of Lewy body dementia and diseases caused by α-synuclein aggregation (intracerebroventricular administration of α-synuclein), which have been used by a number of research groups so far.
The creation of the Lewy body dementia model animal and the administration of the drugs were specifically carried out as described below (FIG. 12). As the mouse, a male ICR mouse (five weeks of age, SLC Japan Co., Ltd., Hamamatsu, Japan) was purchased. Mice had free access to water and food. First, α-synuclein (StressMarq @ Bioscience, Cat #: SPR-322) was incubated at 37° C. for four days to let aggregate. On the first day of the experiment, mice were anesthetized with isoflurane and pentobarbital, and placed on a mouse brain fixation apparatus. Physiological saline (6 μL) or α-synuclein (6 μg) was administered intracerebroventricularly. […]
Statistical analysis was carried out by one-way analysis of variance (one-way ANOVA) followed by the Fisher's least significant difference test (Fisher's Least Significant Difference test). Data are expressed as mean±standard error (n=4 mouse/group). * p<0.05 and ** p<0.01 show significant differences compared to the group of mice treated with α-synuclein+physiological saline.

β-amyloid-treated mice = assay: Alzheimer's disease model (intracerebroventricular β-amyloid), novel object recognition test (NORT); type: in vivo, mouse; conditions: 10 mg/kg intraperitoneal once a day, day 2 to day 10; test session day 15; male ICR mice
From the text: Using an animal model of Alzheimer's disease (intracerebroventricular administration of β-amyloid), which has been used by a number of research groups so far, the therapeutic effect of R-ketamine and S-ketamine on the cognitive dysfunction was studied.
The creation of the Alzheimer's disease model animal and the administration of the drug were specifically carried out as described below (FIG. 10). As the mouse, a male ICR mouse (five weeks of age, SLC Japan Co., Ltd., Hamamatsu, Japan) was purchased. Mice had free access to water and food. First, β-amyloid (BACHEM, Cat. #: H-1192.0005) was incubated at 37° C. for four days to let aggregate. On the first day of the experiment, mice were anesthetized with isoflurane and pentobarbital, and placed on a mouse brain fixation apparatus. Distilled water (6 μL) or β-amyloid (6 μg) was administered intracerebroventricularly. […] On the 14th day of the experiment, two objects having different shapes and colors were placed on the NORT apparatus at a distance of 35.5 cm, and the time for searching for each object was measured. […] The time to search for two objects was measured, and the ratio of the time to search for a new object to the time to search for the two objects in the test session on the second day was calculated. […]

[2] = animal experiments, non-patent literature 5; cited from earlier work
NMDA receptor = conditions: non-patent literature 4; cited from earlier work
[3] = 10 mg/kg intranasal, day 1 (3 h after last MPTP) to day 7, DAT on day 8, male C57BL/6N mice

## CNC1(c2ccccc2Cl)CCCCC1=O (racemic) [RS-ketamine]
[1]; non-patent literature 2
  neuroprotective effect in an animal model of Parkinson's disease: has a neuroprotective effect
[1]
  side effects such as an acute activity increase effect: notably observed

## O=C(Nc1ccccc1C(=O)NC1CCCCNC1=O)c1cc2ccccc2s1 (centres unmarked) [ANA-12]
MPTP-treated mice; ANA-12 alone, 0.5 mg/kg
  MPTP-induced decrease in DAT density: did not affect MPTP-induced decrease in DAT density

## CN[C@@]1(c2ccccc2Cl)CCCCC1=O [R-ketamine]
MPTP-treated mice; [3]
  MPTP-induced decrease in DAT density in the striatum: significantly improved the decrease in DAT density
MPTP-treated mice; 10 mg/kg intranasal, single administration
  MPTP-induced decrease in DAT density in the striatum: suppressed MPTP-induced decrease in DAT density
MPTP-treated mice; R-ketamine 10 mg/kg intranasal with ANA-12 (0.5 mg/kg) administered before
  MPTP-induced decrease in DAT density in the striatum: No effect of R-ketamine was observed
α-synuclein-treated mice
  decrease in cognitive function caused by α-synuclein administration (NORT): significantly improved the decrease in cognitive function
β-amyloid-treated mice
  decrease in cognitive function caused by β-amyloid administration (NORT): significantly improved the decrease in cognitive function
[2]
  side effects (psychotic disorder triggering effect, drug dependency, and the like) compared with S-ketamine: fewer side effects

## N[C@@]1(c2ccccc2Cl)CCCCC1=O [R-norketamine]
MPTP-treated mice; [3]
  MPTP-induced decrease in DAT density in the striatum: did not suppress MPTP-induced decrease in DAT density

## CN[C@]1(c2ccccc2Cl)CCCCC1=O [S-ketamine]
NMDA receptor
  affinity for the NMDA receptor relative to R-ketamine: about four times higher than R-ketamine
MPTP-treated mice; [3]
  MPTP-induced decrease in DAT density in the striatum: did not improve the decrease in DAT density
β-amyloid-treated mice
  decrease in cognitive function caused by β-amyloid administration (NORT): did not improve the decrease in cognitive function

## N[C@]1(c2ccccc2Cl)CCCCC1=O [S-norketamine]
MPTP-treated mice; [3]
  MPTP-induced decrease in DAT density in the striatum: did not suppress MPTP-induced decrease in DAT density
